Data: US8524740B2, “Synthesis and anticancer activity of aryl and heteroaryl-quinolin derivatives” (Tairx, Inc., priority 2010, dated 2013)

Experiments:
[1] = system: Hep3B; experiment: MTT assay, Hep 3B cells; type: cell-based; conditions: Homo sapiens
Procedure: (§1) MTT (3-(4,5-Dimethylthiazol-2-yl)-2,5-diphenyltetrazolium bromide) assays.^21,22 HL-60, HCT-116, Hep 3B, H460, Detroit 551 and HT29/FuR cells were treated with tested compounds for the indicated periods. After treatment, cells were washed once with PBS and incubated with MTT (Sigma, St. Louis, Mo., USA) for 2 h. The formazan precipitate was dissolved in 150 μL of DMSO, and the absorbance was measured with an ELISA reader at 570 nm.
(§2) HL-60, Hep 3B, H460, MES-SA, MES-SAID x5 and Detroit 551 cells were treated with vehicle or test compounds for 48 h. The cell growth rate was determined by MTT (3-(4,5-dimethyl-thiazol-2-yl)-2,5-diphenyltetrazoliun bromide) reduction assay.
as §1, with “assays.” for “assays.^21,22”, “HCT-116, A549,” for “HCT-116,”, “KB, Kb-VIN” for “H460, Detroit 551”, “DU145” for “HT29/FuR”
as §1, with “assays.” for “assays.^21,22”, “HL-60,” for “HL-60, HCT-116,”, “H460, A498, Colo205 and” for “H460,”, “551” for “551 and HT29/FuR”

[2] = system: HL-60; experiment: MTT assay, HL-60 cells; type: cell-based; conditions: Homo sapiens
Procedure: as §1, §2
as §1, with “assays.” for “assays.^21,22”, “HCT-116, A549,” for “HCT-116,”, “KB, Kb-VIN” for “H460, Detroit 551”, “DU145” for “HT29/FuR”
as §1, with “assays.” for “assays.^21,22”, “HL-60,” for “HL-60, HCT-116,”, “H460, A498, Colo205 and” for “H460,”, “551” for “551 and HT29/FuR”

[3] = system: H460; experiment: MTT assay, H460 cells; type: cell-based; conditions: Homo sapiens, NCI-H460
Procedure: as §1, §2
as §1, with “assays.” for “assays.^21,22”, “HL-60,” for “HL-60, HCT-116,”, “H460, A498, Colo205 and” for “H460,”, “551” for “551 and HT29/FuR”

[4] = system: Detroit 551; experiment: MTT assay, Detroit 551 normal human cells; type: cell-based; conditions: for IC50: Detroit 551
Procedure: as §1, §2
as §1, with “assays.” for “assays.^21,22”, “HL-60,” for “HL-60, HCT-116,”, “H460, A498, Colo205 and” for “H460,”, “551” for “551 and HT29/FuR”

[5] = system: HCT116; experiment: MTT assay, HCT-116 cells; type: cell-based; conditions: Homo sapiens, Table 1, 48 h
Procedure: as §1
as §1, with “assays.” for “assays.^21,22”, “HCT-116, A549,” for “HCT-116,”, “KB, Kb-VIN” for “H460, Detroit 551”, “DU145” for “HT29/FuR”

[6] = system: HT29/5FuR; experiment: MTT assay, HT29/5FuR cells; type: cell-based; conditions: Homo sapiens, HT-29, Table 1, 48 h
Procedure: as §1

[7] = system: HL-60, HCT-116, Hep3B, H-460; experiment: Cytotoxicity screen (MTT) against human cancer cell lines, results in words; type: cell-based; conditions: comparison within sub-series or with CHM-2133
Procedure: as §1, §2

[8] = Homo sapiens, Table 2, B-1 series, 48 hrs
[9] = Table 1, 48 h, MTT, normal human cell

SMILES: COc1cc(C2=Nc3ccc(N4CCCC4)cc3C(=O)C2)ccc1OCc1ccccc1 [Compound 123, 2-(4-(Benzyloxy)-3-methoxyphenyl)-6-pyrrolidinoquinolin-4-one]
- melting point: 304 to 306 °C

SMILES: COc1ccc(O)cc1C1=Nc2ccc(N3CCOCC3)cc2C(=O)C1 [Compound 143a, 2-(5-hydroxy-2-methoxyphenyl)-6-morpholinoquinolin-4-one]
- IC50 ([1]; Table 2, B-1 series, 48 hrs): > 100 µM
- IC50 ([2]; Table 2, B-1 series, 48 hrs): 93.8 µM
- IC50 ([3]; Table 2, B-1 series, 48 hrs): 84.8 µM
- IC50 [4, 8]: > 100 µM

SMILES: CN(C)c1ccc2c(c1)C(=O)CC(c1ccccc1OCc1ccccc1)=N2 [Compound 115, 2-(2-Benzyloxyphenyl)-6-dimethylaminoquinolin-4-one]
- melting point: 210 to 212 °C

SMILES: O=C1CC(c2cccc(F)c2)=Nc2ccc(O)c(O)c21 [Compound 41, 2-(3-Fluorophenyl)-5,6-dihydroxyquinolin-4-one]
- IC50 ([1]; Table 1, 48 h, MTT): 6.9 µM
- IC50 ([2]; Table 1, 48 h, MTT): 0.3 µM
- IC50 [5]: 8.2 µM
- IC50 ([3]; Table 1, 48 h, MTT): 6.1 µM
- IC50 [6]: 0.53 µM
- IC50 [4, 9]: > 100 µM
- cytotoxicity (in words) [7]: greater cytotoxicity

SMILES: CN(C)c1ccc2c(c1)C(=O)CC(c1cccc(OCc3ccccc3)c1)=N2 [Compound 118, 2-(3-Benzyloxyphenyl)-6-dimethylaminoquinolin-4-one]
- melting point: 307 to 308 °C

SMILES: COc1cc(C2=Nc3ccc(N4CCCC4)cc3C(=O)C2)ccc1O [Compound 144, 2-(4-Hydroxy-3-methoxyphenyl)-6-pyrrolidinoquinolin-4-one]
- IC50 ([1]; Table 3, B-2 series, 48 hrs): 0.38 µM
- melting point: 310 to 312 °C
- IC50 ([2]; Table 3, B-2 series, 48 hrs): 0.038 µM
- IC50 ([3]; Table 3, B-2 series, 48 hrs): 0.56 µM
- IC50 ([4]; Homo sapiens, Table 3, B-2 series, 48 hrs): > 2.5 µM

SMILES: COc1ccc2c(c1O)C(=O)CC(c1ccc(F)cc1)=N2 [Compound 39, 2-(4-Fluorophenyl)-5-hydroxy-6-methoxyquinolin-4-one]
- IC50 ([1]; Table 1, 48 h, MTT): 11 µM
- IC50 ([2]; Table 1, 48 h, MTT): 1.8 µM
- IC50 [5]: 2.4 µM
- IC50 ([3]; Table 1, 48 h, MTT): 8.8 µM
- IC50 [6]: 0.33 µM
- IC50 [4, 9]: > 25 µM
- cytotoxicity (in words) [7]: weaker

SMILES: O=C1CC(c2ccc(OCc3ccccc3)cc2)=Nc2ccc(N3CCOCC3)cc21 [Compound 119, 2-(4-Benzyloxyphenyl)-6-morpholinoquinolin-4-one]
- melting point: 320 to 323 °C

SMILES: COc1cc2c(cc1OCc1ccccc1)N=C(c1ccc(F)cc1)CC2=O [Compound 24, 7-Benzyloxy-2-(4-fluorophenyl)-6-methoxyquinolin-4-one]
- melting point: 248 to 249 °C

SMILES: COc1ccc(O)cc1C1=Nc2ccc(N3CCCC3)cc2C(=O)C1 [Compound 143b, 2-(5-hydroxy-2-methoxyphenyl)-6-pyrrolidinoquinolin-4-one]
- IC50 ([1]; Table 2, B-1 series, 48 hrs): 59.3 µM
- IC50 ([2]; Table 2, B-1 series, 48 hrs): 56.2 µM
- IC50 ([3]; Table 2, B-1 series, 48 hrs): > 100 µM
- IC50 [4, 8]: > 100 µM

SMILES: O=C1CC(c2ccccc2F)=Nc2ccc(O)c(O)c21 [Compound 40, 2-(2-Fluorophenyl)-5,6-dihydroxyquinolin-4-one]
- IC50 ([1]; Table 1, 48 h, MTT): 3.9 µM
- IC50 ([2]; Table 1, 48 h, MTT): 0.5 µM
- IC50 [5]: 0.6 µM
- IC50 ([3]; Table 1, 48 h, MTT): 4.1 µM
- IC50 [6]: 1.63 µM
- IC50 [4, 9]: > 100 µM
- cytotoxicity (in words) [7]: greater cytotoxicity

SMILES: O=C1CC(c2cccc(OCc3ccccc3)c2)=Nc2ccc(N3CCOCC3)cc21 [Compound 116, 2-(3-Benzyloxyphenyl)-6-morpholinoquinolin-4-one]
- melting point: 283 to 285 °C

SMILES: COc1ccc2c(c1O)C(=O)CC(c1cccc(F)c1)=N2 [Compound 38, 2-(3-Fluorophenyl)-5-hydroxy-6-methoxyquinolin-4-one]
- IC50 ([1]; Table 1, 48 h, MTT): 0.078 µM
- IC50 ([2]; Table 1, 48 h, MTT): 0.039 µM
- IC50 [5]: 0.073 µM
- IC50 ([3]; Table 1, 48 h, MTT): 0.088 µM
- IC50 [6]: 0.26 µM
- IC50 [4, 9]: > 50 µM
- toxicity toward Detroit 551 normal human cell (in words) ([4]; Table 1 compounds): lower toxicity
- cytotoxicity (in words) [7]: greater cytotoxicity

SMILES: COc1ccc(C2=Nc3ccc(N4CCOCC4)cc3C(=O)C2)cc1 [Compound 132, 2-(4-Methoxyphenyl)-6-morpholinoquinolin-4-one]
- IC50 ([1]; Table 2, B-1 series, 48 hrs): > 2.5 µM
- melting point: 302 to 304 °C
- IC50 ([2]; Table 2, B-1 series, 48 hrs): > 2.5 µM
- IC50 ([3]; Table 2, B-1 series, 48 hrs): > 2.5 µM
- IC50 [4, 8]: > 2.5 µM

SMILES: COc1cc(OCc2ccccc2)cc(C2=Nc3cc4c(cc3C(=O)C2)OCO4)c1 [Compound 165, 2-(3-Benzyloxy-5-methoxyphenyl)-6,7-methylenedioxyquinolin-4-one]
- melting point: 235 to 238 °C
